Experimental data from US6346390B1, “Receptor derived peptides involved in modulation of response to ligand binding” (Receptron, Inc., priority 1996, dated 2002).

Legend:
human insulin receptor = molecular target: T1, human insulin receptor (Homo sapiens, UniProt P06213); assay: Insulin receptor internalization in transfected HeLa cells; assay type: cell-based; settings: for effect on insulin receptor internalization (in words): transfected cells, 10 μM peptide
T1 construct: expressed in transfected cells; host or cells: HeLa cells, electroporated; pCR3 expression vector (Invitrogen, catalog no. K3000-01)
Description: Insulin Receptor modification and expression. […] K3000-01) was transfected by electroporation into HeLa cells. Methods of electroporation are described in Boggs et al. (1986) Ex. Hematol. 149:988-994. In the transfected cells the receptors show insulin dependent internalization.
Receptor internalization was performed essentially as described in Stagsted et al. (1990) Cell 62:297-307. […] The cells were then diluted with 50 μl of KRHB (pH7.2) (no acid wash) or 50 μl of KRHB (pH 2.0) (acid wash) and incubated on ice for 5 min. The cells were finally harvested by centrifugation on top of silicone oil, and both free and cell-associated radioactivity was measured.

rat adipose cells = assay: Glucose transport in adipose cells; assay type: cell-based
Description: The biological activity of the peptides were measured by their effect on glucose uptake in rat adipose cells as described (Stagsted et al. (1991) J. Biol. Chem. 266:12844-12847). Briefly, rat adipose cells were obtained from epididymal fat pads and suspended in Krebs-Ringer HEPES buffer (KRH) with 5% bovine serum albumin at a lipocrit of 10% (final). […] Most of the peptides were not tested at higher concentrations than 30 μM.

Substance: TWLGRQGPEGPSSIPPGTLTTLW [GLUT4pep]
- per cent internalized receptor (human insulin receptor; in the presence of 10 μM peptide, time not stated, in the absence of peptide 64±7): 6±9 per cent
- effect on insulin receptor internalization (in words) (human insulin receptor): does not affect insulin receptor internalization

Substance: insulin
- enhancement of glucose uptake (rat adipose cells; 10 nM insulin alone): 12±4 fold
- enhancement of glucose uptake (rat adipose cells; 10 μM insulin alone): 14±3 fold

Substance: GNEQSFRVDLRTLLRYAGGGNEQSFRVDLRTLLRYA [DS-A85]
- enhancement of glucose uptake (rat adipose cells; insulin + 10 μM peptide (insulin alone 14±3 fold)): 22±4 fold

Substance: KTDSQILKELEESSFRKTFEDYLH [pepIR, human insulin receptor derived peptide]
- effect on insulin receptor internalization (in words) (human insulin receptor): inhibits receptor internalization to the same extent as DS-A85
- effect on glucose uptake (in words) (rat adipose cells; at maximal insulin stimulation): did not significantly affect glucose uptake
